Measured values from the METLIN SMRT retention time set (Domingo-Almenara et al. 2019).

Assay: gradient 5% acetonitrile 3 min, to 50% in 2 min, to 85% in 15 min, held 3 min, 100 µL/min
Conditions: column: Zorbax Extend-C18 2.1 x 50 mm; eluents: water / acetonitrile, 0.1% formic acid
In short: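 Each retention time is based on an adduct peak selected computationally and verified by manual inspection. Measurements used HPLC–quadrupole time-of-flight mass spectrometry in positive and negative ionization mode on mixtures of ~100 pure standards. Chromatography ran on a Zorbax Extend-C18 column (2.1 × 50 mm, 1.8 μm) at 100 μL/min with water and acetonitrile, each containing 0.1% formic acid, and dead and dwell volumes of 40 μL and 900 μL.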

RP-LC retention time [s]	SMILES
756	COC(=O)c1cc(OCC(=O)Nc2ccc(OC)c(OC)c2)c2cc(F)ccc2n1
1060	Cc1ccc(S(=O)(=O)N2CCc3c(c(-c4nnc(-c5ccc(F)cc5)o4)nn3C)C2)c(C)c1
971	Clc1ccc(-c2ccnc3nc(-c4ccccc4)nn23)cc1
823	CN1c2cc(F)ccc2C(=O)NC12CCN(C(=O)c1ccc(F)c(Cl)c1)CC2
635	Cc1cc(F)cc2c(=O)c3c([nH]c12)CCN(CC(=O)Nc1cc(F)cc(F)c1)C3
979	O=C(Cn1c(=O)oc2ccccc21)N1CCC(Oc2nc3c(Cl)cccc3s2)CC1
572	Cc1cc(N2CCCC2)n2nc(CN3CCC4(CC3)OCCO4)nc2n1
772	Cc1ccccc1NC(=O)N1CCC2(C1)C(=O)N(C)c1ccccc12 (stereo not drawn)
966	CC1(C)C(=O)N(CC(=O)Nc2ccc(F)c(Cl)c2)c2ccccc21
1000	O=S(=O)(Cc1ccccc1Cl)N(Cc1ccsc1)C1CC1
990	Cc1noc(-c2nc(-c3cccc(F)c3)no2)n1
1040	N#Cc1cccc(NC(=O)c2cccn2Cc2noc(-c3ccccc3)n2)c1
646	COc1ccc(CN2CCN(C(=O)CCc3c(C)noc3C)CC2)cn1
743	Cc1cccc(NC(=O)Cn2c(-c3cnccn3)nc(C)c(C)c2=O)c1C
1040	CCOC(=O)c1sc(NC(=O)c2cn(CC)c3nc(C)ccc3c2=O)nc1C
739	COC(=O)c1ccc(NC(=O)N2CCCC2c2cc(C)on2)cc1 (stereo not drawn)
1130	CCCCN1C(=O)NC(c2ccccc2)C(c2nc(-c3ccccc3)no2)=C1C (stereo not drawn)
1170	CCOc1nc2ccccc2nc1N1CCCC(C(=O)NC2CCCCC2)C1 (stereo not drawn)
918	CCCOc1ccc(CNC(=O)c2nc3cccnc3n(CC)c2=O)cc1
716	COCCN1C(=O)CCc2cc(NS(=O)(=O)c3cccc4nsnc34)ccc21
871	C#CCOCC1CCCN(S(=O)(=O)c2cc(F)ccc2OC)C1 (stereo not drawn)
734	Cc1cccc(Nc2nc(-c3ccncc3)cs2)c1

RP-LC retention time [s]	SMILES
869	Cc1ccc(CNC(=O)c2ccc(-c3nnc4ccc(NC(=O)C5CCC5)cn34)cc2)cc1
1020	COc1ccc(CNC(=O)C2(C)CCCN(S(=O)(=O)c3ccc(Br)cc3)C2)cc1 (stereo not drawn)
744	CCCN1CCn2cc(S(=O)(=O)Nc3cc(OC)cc(OC)c3)cc2C1=O
1200	CCc1cc(C(=O)Nc2ccc(C(=O)OC)cc2)nc2cc(-c3ccco3)nn12
712	CC(=O)N1CCC(C(=O)Nc2ccc(OCc3nnc(-c4ccccc4)o3)cc2)CC1
982	CSc1cccc(NC(=O)CN2C(=O)C3CCCCN3c3ccc(S(=O)(=O)N(C)C)cc32)c1 (stereo not drawn)
1120	CC(C)Cc1ccc(S(=O)(=O)N2CCCC(CNC(=O)c3ccccc3)C2)cc1 (stereo not drawn)
763	CCOc1cccc2sc(N(Cc3ccccn3)C(=O)c3nn(C)cc3C)nc12
811	CCC(=O)Nc1ccc(SCc2nnc(-c3ccccc3)o2)cc1
1240	Cc1ccc(-c2csc(NC(=O)CCCc3nc(-c4ccc(Cl)cc4)no3)n2)cc1
924	O=c1c2nc(-c3ccc(Br)cc3)cn2ccn1-c1ccc(F)c(F)c1
1190	Cc1cc(C)n(-c2cc(N3CCN(c4nc(-c5ccccc5)cs4)CC3)ccc2[N+](=O)[O-])n1
986	Cc1ccc(-c2nnc(-c3cccc(S(=O)(=O)N(C)C)c3)o2)cc1
904	O=S(=O)(CCc1noc(-c2cccc(F)c2)n1)c1ccccc1
794	CCCCC(=O)N1CCN(c2ncccc2-c2nnc(C(C)C)o2)CC1
966	O=c1c2ccccc2c2ccccc2c(=O)n1Cc1ccco1
717	COCC(=O)Nc1cccn2nc(C(C)C)nc12
728	COCCc1noc(-c2ccc(=O)n(CC(=O)Nc3cc(F)ccc3F)c2)n1
688	Cc1csc(-c2cc(S(=O)(=O)N3CCN(C(C)C)CC3)cn2CC(=O)N2CCCCC2)n1
1060	CC1CCCN(S(=O)(=O)c2cc(C(=O)N3CCCc4ccccc43)n(C)c2)C1 (stereo not drawn)
988	CCOC(=O)c1cc(S(=O)(=O)N2CCCC2C(=O)Nc2ccc(C)c(F)c2)cn1C (stereo not drawn)
746	O=C(Nc1ccc(Cl)c(Cl)c1)N1CC(c2nc(-c3cnccn3)no2)C1

RP-LC retention time [s]	SMILES
941	Cc1ccc2c(c1)N(S(C)(=O)=O)CCC(C(=O)NC1CC3CCC1C3)O2 (stereo not drawn)
571	CCN(CC)CCNC(=O)Cn1c(-c2ccccn2)nc2ccccc21
866	CC(C)CCNC(=O)Cn1c(=O)c(S(=O)(=O)c2ccccc2)cc2ccccc21
617	CC(C)OCCCNC(=O)C1CCCCC(=O)N1 (stereo not drawn)
794	Cc1ccc(NC(=O)C2CCCN2S(=O)(=O)c2cc3c(cc2C)NC(=O)CO3)cc1C (stereo not drawn)
554	Cc1nc(-c2cccnc2)nc2c1CCC(=O)N2Cc1ccncc1
565	O=C([C@@H]1C[C@H](Oc2cccnc2)CN1C(=O)C1CCC1)N1CCCC1
758	CCCC(=O)Nc1ccc(-n2cnc(C(=O)NC3CCCCC3)c2)nc1
620	Cc1cccc(C(=O)N2C[C@@H](F)C[C@H]2C(=O)N2CCOCC2)c1
744	O=C(Cn1nc2c3ccc(Cl)cc3ncn2c1=O)Nc1ccc(F)cc1
592	CCN1CCC2(CC1)N=C(c1ccc(F)cc1)CC(c1cccc(OC)c1O)N2 (stereo not drawn)
901	CC(C)COC(=O)c1ccc(NC(=O)C2C3CCC(C3)C2C(=O)O)cc1 (stereo not drawn)
603	Cc1ccccc1NC(=O)N1CCN(c2nc(N3CCOCC3)nc(-n3ccnc3)n2)CC1
813	CCOCCCNC(=O)C1CCCN(S(=O)(=O)c2ccc(OC)c(C)c2)C1 (stereo not drawn)
1170	CC1CCN(S(=O)(=O)c2ccc(-c3nnc(C(=O)NC(C)CCc4ccccc4)o3)cc2)CC1 (stereo not drawn)
667	c1ccc(-c2nc(-c3ccncc3)no2)c(OC2CCN(C3CCCC3)C2)c1 (stereo not drawn)
1080	COc1ccc(-c2csc(NC(=O)CCCc3nc(-c4ccccc4Cl)no3)n2)cc1
668	O=C(Cn1nc2c3ccc(F)cc3ncn2c1=O)NCc1ccc(F)cc1
767	CCn1nnc2cc(-c3noc(CNC(=O)Cc4ccccc4)n3)ccc21
802	CCC(=O)N1CCc2sc(C(=O)NCc3ccc(Cl)cc3)cc2C1
939	COc1cccc(CNC(=O)C2(C)CCCN(C(=O)Nc3cc(C)ccc3C)C2)c1 (stereo not drawn)
703	CCC(C(=O)Nc1ccc2ncnc(N3CCCC3)c2c1)c1ccccc1 (stereo not drawn)

RP-LC retention time [s]	SMILES
726	COCCN1CCn2cc(S(=O)(=O)Nc3ccc(OC)c(Cl)c3)cc2C1=O
900	Cc1ccc(-n2c(=O)c3c(cc(C)n3C)n(CC(=O)Nc3ccccc3Cl)c2=O)cc1
934	COc1ccc(Cl)cc1NC(=O)C1CCCN(c2ncnc3c2nc2n3CCCCC2)C1 (stereo not drawn)
733	COc1ccc(CNC(=O)C2CCN(S(=O)(=O)c3cn(C(C)C)cn3)CC2)cc1
1020	CCC(c1cccs1)N1C(=O)[C@H]2CN(S(=O)(=O)c3ccccc3C)C[C@H]2C1=O (stereo partly drawn)
924	COc1cccc(-c2cc(=O)n3c4ccccc4n(CC(=O)Nc4ccc5c(c4)OCO5)c3n2)c1
779	CCCNC(=O)Cn1cnc2sc(C(=O)N3CC(C)CC(C)C3)c(C)c2c1=O (stereo not drawn)
923	O=C(C1CC1)N1CCc2sc(S(=O)(=O)NCc3cccc(Cl)c3)cc2C1
634	COc1cc(-c2nc3cccc(C)n3c2Nc2ccc3c(c2)OCCO3)ccc1O
659	Cc1ccc(/C=C/c2nc(-c3ccc4c(c3)oc(=O)n4C(C)C)no2)o1
826	CCOc1ccc(C(=O)Nc2ccc3c(c2)Sc2ncccc2C(=O)N3C)cc1
838	CC(C)OCCCNC(=O)C1CCN(S(C)(=O)=O)c2cc(Cl)ccc2O1 (stereo not drawn)
749	CNC(=O)c1cc(COc2nnc(Nc3ccc(Cl)cc3)c3ccoc23)ccn1
786	CSc1ccc(CNC(=O)C2CCCN(c3ncnc4c3oc3ccccc34)C2)cc1 (stereo not drawn)
1060	Cc1ccc(C(=O)Nc2nccnc2C(=O)NC(C)c2ccc(F)cc2)cc1 (stereo not drawn)
789	O=C(c1ccc(OCC2CCCN2C(=O)c2ccccc2)cc1)N1CCCC1 (stereo not drawn)
588	O=C(CCc1nnc2ccc(NCc3ccccc3)nn12)N1CCN(c2ccccn2)CC1
1100	O=c1ccc(-c2ccc(F)cc2)nn1CCc1nc(-c2cccc(Br)c2)no1
612	CCc1nn(CC(=O)N2CCC(C(N)=O)CC2)c(=O)c2cc3occc3n12
841	O=C(NCC1CCN(C(=O)c2cc3ccccc3o2)CC1)c1cc(Cl)ccc1Cl
689	CC(=O)Nc1ccc(-c2noc(C3CCN(C(=O)C4CC4)CC3)n2)cc1

SMILES	RP-LC retention time [s]
COc1ccc(NC(=O)N2[C@H]3CC[C@@H]2c2cncnc2C3)cc1F	649
